Article PMC9030691, “Toxicokinetics of β-Amanitin in Mice and In Vitro Drug–Drug Interaction Potential” (Pharmaceutics, 2022)
Like-named read-outs stand apart in the source and are kept apart here.

Columns and labels:
[1] = target: T1, CYP2C8 (Homo sapiens, UniProt P10632); experiment: CYP2C8 inhibition in human liver microsomes; format: in vitro ADME; conditions: ultrapooled human liver microsomes 0.2 mg/mL, 2 μM amodiaquine, β-amanitin 0.1–100 μM, pH 7.4, 37 °C, 15 min, LC-MS/MS, n = 3, read-out: IC50, CYP2C8 amodiaquine N-deethylase
T1 construct: enzyme activities in HLMs were evaluated using LC-MS/MS and CYP substrates; from tissue; host or cells: ultrapooled human liver microsomes
T1 sequence (P10632 1-490): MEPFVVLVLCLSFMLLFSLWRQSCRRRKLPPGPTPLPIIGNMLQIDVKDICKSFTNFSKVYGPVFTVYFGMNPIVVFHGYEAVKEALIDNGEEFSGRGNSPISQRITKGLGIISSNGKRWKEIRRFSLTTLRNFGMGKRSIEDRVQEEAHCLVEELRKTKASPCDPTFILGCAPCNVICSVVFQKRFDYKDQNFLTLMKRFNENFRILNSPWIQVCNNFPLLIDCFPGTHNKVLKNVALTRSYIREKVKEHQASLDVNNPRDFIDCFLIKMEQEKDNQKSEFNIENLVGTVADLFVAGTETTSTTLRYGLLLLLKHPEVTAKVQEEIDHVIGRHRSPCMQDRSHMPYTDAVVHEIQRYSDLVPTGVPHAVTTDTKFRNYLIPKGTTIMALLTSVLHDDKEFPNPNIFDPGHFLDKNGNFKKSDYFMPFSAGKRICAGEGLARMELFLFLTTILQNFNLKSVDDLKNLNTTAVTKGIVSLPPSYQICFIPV
Description: β-amanitin inhibition (IC50 values) of CYP1A2, CYP2A6, CYP2B6, CYP2C8, CYP2C9, CYP2C19, CYP2D6, and CYP3A4 enzyme activities in HLMs were evaluated using LC-MS/MS and CYP substrates as previously described. Each incubation mixture was made up to a volume of 100 μL including HLMs (0.2 mg/mL), 50 mM potassium phosphate buffer (pH 7.4), 1.0 mM NADPH, 10 mM magnesium chloride, various concentrations of β-amanitin (0.1–100 μM), a cocktail of seven CYP probe substrates (50 μM phenacetin for CYP1A2, 2.5 μM coumarin for CYP2A6, 2 μM amodiaquine for CYP2C8, 10 μM diclofenac for CYP2C9, 100 μM [S]-mephenytoin for CYP2C19, 5 μM bufuralol for CYP2D6, and 2.5 μM midazolam for CYP3A4 in acetonitrile), or 50 μM bupropion for CYP2B6. The reactions were initiated with NADPH followed by incubation in a shaking water bath at 37 °C for 15 min with or without 30 min preincubation with NADPH. Reactions were stopped with 50 μL of ice-cold methanol containing ^13C2, ^15N-acetaminophen and d9-1′-hydroxybufuralol (ISs). Incubation mixtures were centrifuged at 13,000× g for 8 min at 4 °C. An aliquot (5 μL) of the supernatant from the reaction mixture was analyzed by the previous LC-MS/MS method.

[2] = tested on: HEK293 control cells; experiment: Uptake of amanitins into HEK293 control cells; format: in vitro ADME; conditions: 50 μM amanitin, 5 min, 37 °C, HBSS, LC-HRMS, n = 3
Description: HEK293 cells overexpressing OCT2, MATE2-K, OAT1, OAT3, OATP1B1, and OATP1B3 transporters and HEK293-control cells were maintained in a humidified atmosphere of 5% CO2 at 37 °C in DMEM supplemented with 10% FBS and 5 mM non-essential amino acids. In the case of HEK293-OATP1B1, -OATP1B3, and MATE2-K cells, 2 mM sodium butyrate was added to the culture medium to enhance transport activity. Cells were seeded at 2 × 10^5 cells/well in poly-D-lysine-coated 24-well plates. After 24 h, the growth medium was discarded, and attached cells were washed with HBSS and preincubated for 20 min in HBSS at 37 °C. Stock solutions of α- and β-amanitin and representative inhibitors of transporters were diluted in HBSS to make the final concentration: cimetidine 1 mM (for OCT2), cimetidine 100 μM (for MATE2-K), probenecid 100 μM (for OAT1 and OAT3), and rifampin 100 μM (for OATP1B1 and OATP1B3). Uptake of 50 μM α- and β-amanitin was measured in the absence and presence of representative inhibitors for 5 min at 37 °C. Plates were placed immediately on ice, and cells were then washed twice with 1 mL of ice-cold HBSS. Residual HBSS was removed thoroughly from the plates. Subsequently, 150 μL of 80% methanol containing IS was added to each sample well, and the cell plates were shaken gently for 20 min at 4 °C. The remaining steps were the same as described for plasma sample preparation.

[3] = Urinary and fecal excretion in mice; format: in vivo, male ICR mice; conditions: male mice, LC-HRMS, mean ± SD; for dose excreted: ICR, mouse
Description: β-amanitin in water was administered by iv bolus injection into the tail vein at 0.8 mg/kg dose (n = 4) and by oral gavage at 10 mg/kg dose (n = 3) to male mice. Mice were returned to metabolic cages, and urine and feces samples were collected individually at 0–6, 6–12, 12–24, 24–36, and 36–48 h. Urine and feces samples were stored at −80 °C until the analysis.
Each tissue and feces sample was homogenized in water (1:3, w/v). In total, 50 μL aliquots of urine, tissue homogenates, or feces homogenates were mixed with 150 μL of 4′-hydroxydiclofenac solution (IS, 5 ng/mL in methanol). The other steps were as described for plasma sample preparation.

For `CC[C@H](C)[C@@H]1NC(=O)CNC(=O)[C@@H]2Cc3c([nH]c4cc(O)ccc34)[S@+]([O-])C[C@H](NC(=O)CNC1=O)C(=O)N[C@@H](CC(=O)O)C(=O)N1C[C@H](O)C[C@H]1C(=O)N[C@@H]([C@@H](C)[C@@H](O)CO)C(=O)N2` [β-amanitin], the IC50 ([1]; with 30 min NADPH preincubation) was greater than 100 µM, the IC50 ([1]; without NADPH preincubation) was greater than 100 µM and the “Uptake into HEK293 control cells, β- versus α-amanitin” value [2] was “greater than α-amanitin”. The dose excreted ([3]; iv bolus 0.8 mg/kg, metabolic cages, urine 0–48 h, n = 4, read-out: Total urinary recovery (parent form) after 48 h) was 52.3 ± 19.8%, the dose excreted ([3]; oral gavage 10 mg/kg, feces 0–48 h, n = 3, read-out: Cumulative fecal excretion for 48 h) was 72.4 ± 24.7% and the dose excreted ([3]; oral gavage 10 mg/kg, urine 0–48 h, n = 3, read-out: Cumulative urinary excretion for 48 h) was 2.4 ± 1.2%. The “Total fecal recovery over 48 h” value ([3]; iv bolus 0.8 mg/kg, feces 0–48 h, n = 4) was 7.6% ± 1.2 and the “Urinary recovery within 6 h” value ([3]; iv bolus 0.8 mg/kg, urine 0–6 h, n = 4) was 40.9% ± 27.6.
